Source: the NIST ThermoML archive (doi:10.1021/je201391j)

Details: 101 kPa, Liquid mixture 1, Pendant Drop method

CCCC[N+]1(C)CCCC1.O=S(=O)([N-]S(=O)(=O)C(F)(F)F)C(F)(F)F + CCCCO
Details	interfacial tension [mN/m]
293.15 K	0.666
295.65 K	0.576
298.15 K	0.443
300.65 K	0.368
303.15 K	0.276
305.65 K	0.163
